Laboratory results taken from US4570005A, “Process for the preparation of 2-arylpropyl ether or thioether derivatives” (priority 1980, dated 1986).
Read-outs that look alike come from different tables or passages of the source.

Columns and labels:
[1] = system: sensitive green rice leafhopper (collected at Chigasaki); test: whole plant or invertebrate; assay type: in vivo; conditions: Nephotettix cincticeps, read-out: Mortality (%), Green Rice Leafhopper Collected at Chigasaki
In short: (§1)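 Ten adult females per pot, either resistant (Nakagawara) or sensitive (Chigasaki), were caged on air-dried rice seedlings (2–3 leaves) sprayed at 3 ml/pot with 100 or 20 ppm of an emulsifiable concentrate dilution. Dead and living insects were counted after 24 hours; mortality is the mean of three pots.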

[2] = system: two-spotted spider mite; test: Test 6: Effect on Two-Spotted Spider mite Adults; assay type: in vivo; conditions: Tetranychus urticae; 100 ppm; adults; 24 hours; 25° C; read-out: Mortality (%)
Protocol: (§2) To a mixture of 20 parts of the compound of the present invention and 20 parts of Sorpol SM-200 (registered tradename for the product supplied by Toho Chemical Industrial Co., Ltd.) was added 60 parts of xylol, and the mixture was suffciently blended. The obtained emulsifiable concentrate was diluted at a predetermined concentration with distilled water, and the obtained dilution was used.
A kidney bean leaf disc perforated with a cork borer (15 mm in diameter) was placed on water-impregnated absorbent cotton (2 cm×2 cm), and 10 adults of two-spotted spider mite were set free. A chemical dilution having a concentration of 100 ppm was applied with an applicator in an amount of 3 ml.
The leaf disc-placed absorbent cotton was placed in a thermostat chamber maintained at 25° C. After 24 hours, the number of killed adults was counted and the mortality was calculated. The test was made on three leaf discs and the average value was calculated.

[3] = Test 9: Toxicity Test (acute oral toxicity, mice); conditions: mouse, in vivo, po
Protocol: A predetermined amount of a solution or suspension of a test compound in corn oil was orally administered to male mice having a body weight of 19 to 23 g (0.2 ml per 10 g of the body weight). After 7 days, the number of killed mice was counted and the influences on the mice were examined.

[4] = system: resistant green rice leafhopper (collected at Nakagawara); test: Test 3: Effect on Resistant Green Rice Leafhopper (collected at Nakagawara); assay type: in vivo, Nephotettix cincticeps Uhler (Green rice leafhopper); conditions: Nephotettix cincticeps, 24 h, read-out: Mortality (%), Green Rice Leafhopper Collected at Nakagawara
In short: as §1

[5] = Test 8: Fish Toxicity; assay type: in vivo; conditions: carp, water; concentration at which 1/2 of the test fishes were killed within 48 hours; read-out: Fish Toxicity, TLm48
Protocol: A water tank having a width of 60 cm, a length of 30 cm and a height of 40 cm was filled with water, and 10 yearling carps having a body length of about 5 cm were set free in the tank and adapted to the environment in the tank. A test compound was applied so that the concentration in water was 10, 1 or 0.1 ppm. After 48 hours, the numbers of killed and living carps were counted and the influences on the fishes were examined.

[6] = system: green peach aphid; test: Test 5: Effect on Green Peach Aphid; assay type: in vivo; conditions: Myzus persicae; 100 ppm; mortality class; 24 hours; read-out: Insecticidal Activity
Protocol: as §2
Seedlings (having 3 to 4 leaves) of an eggplant grown on a pot were inoculated with green peach aphids and the insects were allowed to grow. The number of the insects was counted. A chemical dilution having a concentration of 100 ppm, prepared in the same manner as described in Test 1, was applied with a spray gun at a rate of 10 ml per pot. Then, the pot was placed in a glass green house. After 24 hours, the number of living insects was counted and the mortality was calculated.
The test was made on three pots, and the average value was calculated. In Table 6, mark "A" indicates a mortality higher than 95%, mark "B" indicates a mortality of 80 to 95%, mark "C" indicates a mortality of 50 to 80%, and mark "D" indicates a mortality lower than 50%.

[7] = system: German cockroach; test: Test 7: Effect on German Cockroach; assay type: in vivo; conditions: Blattella germanica
In short: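 Petri dish floors were treated with 50 or 10 mg/m2 of compound (diluted emulsifiable concentrate) and air-dried. Ten male adult German cockroaches per dish were held at 25° C. Agonized and dead insects were counted after 24 hours, averaging two dishes.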

[8] = system: diamond back moth; test: Test 4: Effect on Diamond Back Moth; assay type: in vivo; conditions: Plutella
In short: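 Compound formulated as an emulsifiable concentrate, diluted in water to 100 or 20 ppm and sprayed at 3 ml per cup onto cabbage leaves holding 10 third-instar larvae. Mortality counted after 24 hours; mean of three cups.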

[9] = system: tobacco cutworm; test: Test 1: Effect on Tobacco Cutworm (leaf immersion), mortality after 24 hours; assay type: in vivo; conditions: second-instar larvae, 25° C
In short: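 Second-instar tobacco cutworm larvae were kept at 25 °C on air-dried sweet-potato leaves that had been immersed for 10 s in test dilutions of 100 or 20 ppm from an emulsifiable concentrate. Mortality was scored at 24 h as the mean of three cups.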

[10] = system: tobacco cutworm; test: Test 2: Tobacco Cutworm Larva Dipping Test, mortality after 24 hours; assay type: in vivo; conditions: 24 h
In short: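 Second- and fifth-instar larvae dipped 5 s in a water dilution of an emulsifiable concentrate at 100 or 20 ppm, blotted, then held on artificial diet at 25° C. Dead and living larvae counted after 24 hours; mortality averaged over three cups.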

[11] = 20 ppm, sensitive female adults, 24 hours
[12] = 100 ppm, sensitive female adults, 24 hours
[13] = 10 mg/m^2, male adults, agonized and killed after 24 hours, read-out: Mortality (%)
[14] = 50 mg/m^2, male adults, agonized and killed after 24 hours, read-out: Mortality (%)
[15] = 20 ppm, third-instar larvae, 24 hours, read-out: Mortality (%)
[16] = 100 ppm, third-instar larvae, 24 hours, read-out: Mortality (%)
[17] = read-out: Motality (%), Fifth-Instar Larvae
[18] = read-out: Motality (%), Second-Instar Larvae

Compound	mortality at 20 ppm [1, 11]	mortality at 100 ppm [1, 12]	LD50 at 168 h [3]	mortality at 20 ppm [4]	mortality at 100 ppm [4]	LC50 at 48 h [5]	mortality at 100 ppm [6]	mortality at 20 ppm [8, 15]	mortality at 100 ppm [8, 16]	mortality at 20 ppm [9]	mortality at 100 ppm [9]	also measured
CC(C)(COCc1cccc(Oc2ccccc2)c1)c1cc(Cl)cc(Cl)c1 [Compound 56, 3-Phenoxybenzyl 2-(3,5-dichlorophenyl)-2-methylpropyl ether]	90%	100%	> 500 mg/kg	100%	100%	–	–	–	–	–	–	mortality at 100 ppm [2]: 80%
CC(C)(COCc1cccc(Sc2ccccc2)c1)c1ccc(Cl)cc1 [Compound 15, 3-Phenylthiobenzyl 2-(4-chlorophenyl)-2-methylpropyl ether]	70%	100%	> 500 mg/kg	90%	100%	> 10 µg/mL	80 to 95%	–	–	–	–	–
CCC(C)(COCc1cccc(Oc2ccccc2)c1)c1ccc(Cl)c(Cl)c1 (stereo not shown) [Compound 52, 3-Phenoxybenzyl 2-(3,4-dichlorophenyl)-2-ethylpropyl ether]	90%	100%	> 500 mg/kg	90%	100%	> 10 µg/mL	> 95%	90%	100%	–	–	mortality at 10 mg/m2 [7, 13]: 90%; mortality at 50 mg/m2 [7, 14]: 100%
CC(C)(COCc1cccc(Oc2cccc(Cl)c2)c1)c1ccc(OC(F)F)cc1 [Compound 25, 3-(3-Chlorophenoxy)benzyl 2-(4-difluoromethoxyphenyl)-2-methylpropyl ether]	100%	100%	> 500 mg/kg	100%	100%	–	–	–	–	–	–	mortality at 100 ppm [2]: 90%
CC(C)(CSCc1cccc(Oc2ccc(F)cc2)c1)c1ccc(Cl)cc1 [Compound 9]	70%	100%	> 500 mg/kg	90%	100%	–	> 95%	95%	100%	90%	100%	mortality at 10 mg/m2 [7, 13]: 100%; mortality at 50 mg/m2 [7, 14]: 100%
COc1ccc(Oc2cccc(COCC(C)(C)c3ccc(SC)cc3)c2)cc1 [Compound 8, 3-(4-Methoxyphenoxy)benzyl 2-(4-methylthiophenyl)-2-methylpropyl ether]	–	–	> 500 mg/kg	–	–	> 10 µg/mL	80 to 95%	–	–	–	–	–
CCC(C)(COCc1cccc(Oc2ccccc2)c1)c1ccc(C)cc1 (stereo not shown) [Compound 53, 3-Phenoxybenzyl 2-(4-methylphenyl)-2-ethylpropyl ether]	80%	100%	> 500 mg/kg	100%	100%	> 10 µg/mL	80 to 95%	100%	100%	–	–	–
CCC(C)(COCc1cccc(Oc2ccc(Br)cc2)c1)c1ccc(F)cc1 (stereo not shown) [Compound 16, 3-(4-bromophenoxy)benzyl 2-(4-fluorophenyl)-2-ethylpropyl ether]	90%	100%	> 500 mg/kg	100%	100%	–	–	–	–	–	–	mortality at 100 ppm [2]: 90%
COP(=O)(OC)OC=C(Cl)Cl [(g), O,O-dimethyl-O-(2,2-dichlorovinyl)phosphate, reference compound]	–	–	–	–	–	–	< 50%	–	–	–	–	mortality at 20 ppm [10, 17]: 10%; mortality at 100 ppm [10, 17]: 30%; mortality at 20 ppm [10, 18]: 20%; mortality at 100 ppm [10, 18]: 50%; mortality at 10 mg/m2 ([7]; 24 h): 40%; mortality at 50 mg/m2 ([7]; 24 h): 100%; mortality at 20 ppm ([8]; 24 h): 0%; mortality at 100 ppm ([8]; 24 h): 60%
CCC(C)(COCc1cccc(Oc2cccc(Cl)c2)c1)c1cccc(C)c1 (stereo not shown) [Compound 29]	–	–	> 500 mg/kg	–	–	> 10 µg/mL	80 to 95%	–	–	–	–	–
CSc1ccc(C(C)(C)COCc2cccc(Oc3ccccc3)c2)cc1 [Compound 24, 3-Phenoxybenzyl 2-(4-methylthiophenyl)-2-methylpropyl ether]	40%	100%	> 500 mg/kg	70%	100%	> 10 µg/mL	> 95%	–	–	–	–	–
CCCCCOc1ccc(C(C)(C)COCc2cccc(Oc3ccccc3)c2)cc1 [Compound 62, 3-Phenoxybenzyl 2-[4-(n-pentyloxy)phenyl]-2-methylpropyl ether]	–	–	> 500 mg/kg	–	–	> 1 µg/mL	80 to 95%	50%	100%	80%	100%	–
Cc1ccc(C(C)(C)COCc2cccc(Oc3ccccc3)c2)cc1Cl [Compound 73]	–	–	> 500 mg/kg	–	–	> 10 µg/mL	> 95%	90%	100%	100%	100%	mortality at 10 mg/m2 [7, 13]: 100%; mortality at 50 mg/m2 [7, 14]: 100%
CC(C)(COCc1cccc(Oc2ccccc2F)c1)c1ccc(Cl)cc1 [Compound 14]	100%	100%	> 500 mg/kg	100%	100%	–	> 95%	100%	100%	100%	100%	mortality at 10 mg/m2 [7, 13]: 100%; mortality at 50 mg/m2 [7, 14]: 100%
CCOc1ccc(C(C)(C)COCc2cccc(Oc3ccccc3)c2)cc1 [Compound 55, 3-Phenoxybenzyl 2-(4-ethoxyphenyl)-2-methylpropyl ether]	–	–	> 500 mg/kg	100%	100%	> 0.1 µg/mL	> 95%	–	–	100%	100%	mortality at 20 ppm ([1]; 24 h): 100%; mortality at 100 ppm ([1]; 24 h): 100%; mortality at 20 ppm [10, 17]: 100%; mortality at 100 ppm [10, 17]: 100%; mortality at 20 ppm [10, 18]: 100%; mortality at 100 ppm [10, 18]: 100%; mortality at 10 mg/m2 ([7]; 24 h): 100%; mortality at 50 mg/m2 ([7]; 24 h): 100%; mortality at 20 ppm ([8]; 24 h): 100%; mortality at 100 ppm ([8]; 24 h): 100%
CC(C)(COCc1coc(Cc2ccccc2)c1)c1ccc(Cl)cc1 [Compound 12, 5-Benzyl-3-furylmethyl 2-(4-chlorophenyl)-2-methylpropyl ether]	–	–	> 500 mg/kg	–	–	> 10 µg/mL	80 to 95%	–	–	–	–	–
